The target of this experiment is human recombinant H-PGDS (Homo sapiens, UniProt O60760). Briefly: Fluorescence intensity h-PGDS TBA enzyme assay. Type of experiment: biochemical. As to conditions: Examples up to 622 (and 3a, 3b).

pIC50: −log10 of the molar value.

Chain of human recombinant H-PGDS (O60760 whole entry): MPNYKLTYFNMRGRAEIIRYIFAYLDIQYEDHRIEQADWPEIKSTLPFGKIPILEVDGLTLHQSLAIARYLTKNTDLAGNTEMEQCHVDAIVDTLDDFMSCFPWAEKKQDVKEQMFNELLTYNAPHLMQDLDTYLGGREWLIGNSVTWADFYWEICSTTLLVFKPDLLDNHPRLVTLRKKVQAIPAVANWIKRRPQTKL

In general, pIC50 refers to the IC50 on a negative log10 scale, so that one unit is a factor of ten. As to `COc1ccc2[nH]cc(CN3CCC(NC(=O)c4ccc(-c5cccc(F)c5)nc4)CC3)c2c1` [Example 226, 6-(3-Fluorophenyl)-N-{1-[(5-methoxy-1H-indol-3-yl)methyl]piperidin-4-yl}nicotinamide], the negative-log IC50 (pIC50) was 8.85.

With `Cn1ncc(CN2CCC(NC(=O)c3ccc(-c4cccc(F)c4)nc3)CC2)c1-c1cccc(F)c1` [Example 507, 6-(3-Fluorophenyl)-N-(1-{[5-(3-fluorophenyl)-1-methyl-1H-pyrazol-4-yl]methyl}piperidin-4-yl)nicotinamide], the negative-log IC50 (pIC50) was 9.26.

As to `COCCn1c(CN2CCC(NC(=O)c3ccc(-c4cccc(F)c4)nc3)CC2)nc2ccccc21` [Example 420, 6-(3-Fluorophenyl)-N-(1-{[1-(2-methoxyethyl)-1H-benzimidazol-2-yl]methyl}piperidin-4-yl)nicotinamide], the negative logarithm of the IC50 (pIC50) is 8.47.

On to `Cc1c(CN2CCC(NC(=O)c3ccc(-c4cccc(F)c4)nc3)CC2)c(=O)n(C)c(=O)n1C` [Example 270, 6-(3-Fluorophenyl)-N-{1-[(1,3,6-trimethyl-2,4-dioxo-1,2,3,4-tetrahydropyrimidin-5-yl)methyl]piperidin-4-yl}nicotinamide], for which the pIC50 is 9.29.

Consider `CC(C)(C)C(=O)N1CCC(NC(=O)c2ccc(-c3ccccc3)nc2)CC1` [Example 7, N-[1-(2,2-Dimethylpropanoyl)piperidin-4-yl]-6-phenylnicotinamide], for which the negative logarithm of the IC50 (pIC50) is 9.45.

In the case of `Cc1ccccc1-c1ncc(CN2CCC(NC(=O)c3ccc(-c4cccc(F)c4)nc3)CC2)cn1` [Example 434, 6-(3-Fluorophenyl)-N-(1-{[2-(2-methylphenyl)pyrimidin-5-yl]methyl}piperidin-4-yl)nicotinamide], the pIC50 was 8.82.

For `Cc1cc(C2CCCN2c2ccnc(N3CCC(NC(=O)c4ccc(-c5cccc(F)c5)nc4)CC3)n2)no1` (centres unmarked) [Example 47, 6-(3-Fluorophenyl)-N-(1-{4-[2-(5-methylisoxazol-3-yl)pyrrolidin-1-yl]pyrimidin-2-yl}piperidin-4-yl)nicotinamide], the negative-log IC50 (pIC50) was 8.53.

On to `O=C(NC1CCN(c2cc(OCc3ccccn3)ncn2)CC1)c1ccc(-c2cccc(F)c2)nc1` [Example 53, 6-(3-Fluorophenyl)-N-{1-[6-(pyridin-2-ylmethoxy)pyrimidin-4-yl]piperidin-4-yl}nicotinamide], for which the pIC50 was 8.99.

As for `O=C(NC1CCN(Cc2cccc(OC(F)F)c2)CC1)c1ccc(-c2cccc(F)c2)nc1` [Example 315, N-{1-[3-(Difluoromethoxy)benzyl]piperidin-4-yl}-6-(3-fluorophenyl)nicotinamide], the negative-log IC50 (pIC50) is 9.26.

Consider `O=C(NC1CCN(Cc2nc3ccccc3[nH]2)CC1)c1ccc(-c2cccc(F)c2)nc1` [Example 337, N-[1-(1H-Benzimidazol-2-ylmethyl)piperidin-4-yl]-6-(3-fluorophenyl)nicotinamide], for which the pIC50 was 8.85.

On to `CCCCCN1CCC(NC(=O)c2ccc(-c3cccc(F)c3)nc2)CC1` [Example 325, 6-(3-Fluorophenyl)-N-(1-pentylpiperidin-4-yl)nicotinamide], for which the pIC50 was 8.40.

As to `CNS(=O)(=O)c1ccc(CN2CCC(NC(=O)c3ccc(-c4cccc(F)c4)nc3)CC2)cc1` [Example 282, 6-(3-Fluorophenyl)-N-(1-{4-[(methylamino)sulfonyl]benzyl}piperidin-4-yl)nicotinamide], the pIC50 was 9.20.

For the molecule `O=C(NC1CCN(CC2CCOC2)CC1)c1ccc(-c2cccc(F)c2)nc1` (centres unmarked) [Example 350, 6-(3-Fluorophenyl)-N-[1-(tetrahydrofuran-3-ylmethyl)piperidin-4-yl]nicotinamide], the pIC50 was 9.61.

For `CCC(C)N1CCC(NC(=O)c2ccc(-c3cccc(F)c3)nc2)CC1` (centres unmarked) [Example 545, N-(1-sec-Butylpiperidin-4-yl)-6-(3-fluorophenyl)nicotinamide], the pIC50 is 8.58.

For the molecule `O=C(NC1CCN(Cc2cnn3c2CCCC3)CC1)c1ccc(-c2cccc(F)c2)nc1` [Example 386, 6-(3-Fluorophenyl)-N-[1-(4,5,6,7-tetrahydropyrazolo[1,5-a]pyridin-3-ylmethyl)piperidin-4-yl]nicotinamide], the pIC50 was 8.92.

For the molecule `CS(=O)(=O)Nc1cccc(CN2CCC(NC(=O)c3ccc(-c4cccc(F)c4)nc3)CC2)c1` [Example 501, 6-(3-Fluorophenyl)-N-(1-{3-[(methylsulfonyl)amino]benzyl}piperidin-4-yl)nicotinamide], the negative logarithm of the IC50 (pIC50) was 9.36.

Take `O=C(NC1CCN(Cc2coc3ccccc23)CC1)c1ccc(-c2cccc(F)c2)nc1` [Example 518, N-[1-(1-Benzofuran-3-ylmethyl)piperidin-4-yl]-6-(3-fluorophenyl)nicotinamide]: the negative logarithm of the IC50 (pIC50) was 9.02.

Take `COc1cccc(CN2CCC(NC(=O)c3ccc(-c4cccc(F)c4)nc3)CC2)c1` [Example 224, 6-(3-Fluorophenyl)-N-[1-(3-methoxybenzyl)piperidin-4-yl]nicotinamide]: the pIC50 was 9.47.

Regarding `O=C(NC1CCN(Cc2cccnc2OCC2CC2)CC1)c1ccc(-c2cccc(F)c2)nc1` [Example 462, N-(1-{[2-(Cyclopropylmethoxy)pyridin-3-yl]methyl}piperidin-4-yl)-6-(3-fluorophenyl)nicotinamide], the pIC50 was 9.58.

For the molecule `O=C(NC1CCN(c2nc3ccccc3s2)CC1)c1ccc(-c2cccc(F)c2)nc1` [Example 153, N-[1-(1,3-Benzothiazol-2-yl)piperidin-4-yl]-6-(3-fluorophenyl)nicotinamide], the negative logarithm of the IC50 (pIC50) is 8.72.

Regarding `COc1cc(CN2CCC(NC(=O)c3ccc(-c4cccc(F)c4)nc3)CC2)cc2c1OCCO2` [Example 494, 6-(3-Fluorophenyl)-N-{1-[(8-methoxy-2,3-dihydro-1,4-benzodioxin-6-yl)methyl]piperidin-4-yl}nicotinamide], the pIC50 is 9.09.

In the case of `Cc1nn(C(C)(C)C)c(C)c1CN1CCC(NC(=O)c2ccc(-c3cccc(F)c3)nc2)CC1` [Example 209, N-{1-[(1-tert-Butyl-3,5-dimethyl-1H-pyrazol-4-yl)methyl]piperidin-4-yl}-6-(3-fluorophenyl)nicotinamide], the pIC50 was 8.86.

As for `Cn1c(CN2CCC(NC(=O)c3ccc(-c4cccc(F)c4)nc3)CC2)nc2ncccc21` [Example 421, 6-(3-Fluorophenyl)-N-{1-[(1-methyl-1H-imidazo[4,5-b]pyridin-2-yl)methyl]piperidin-4-yl}nicotinamide], the negative-log IC50 (pIC50) was 8.87.

As for `Cc1cc(N(C)C)nc(N2CCC(NC(=O)c3ccc(-c4cccc(F)c4)nc3)CC2)n1` [Example 143, N-{1-[4-(Dimethylamino)-6-methylpyrimidin-2-yl]piperidin-4-yl}-6-(3-fluorophenyl)nicotinamide], the negative-log IC50 (pIC50) was 9.16.

Regarding `CN(CCCN1CCC(NC(=O)c2ccc(-c3cccc(F)c3)nc2)CC1)C(=O)OC(C)(C)C` [Example 269, tert-Butyl {3-[4-({[6-(3-fluorophenyl)pyridin-3-yl]carbonyl}amino)piperidin-1-yl]propyl}methylcarbamate], the negative-log IC50 (pIC50) is 8.46.

As for `Cc1nc2ccc(Cl)cn2c1CN1CCC(NC(=O)c2ccc(-c3cccc(F)c3)nc2)CC1` [Example 445, N-{1-[(6-Chloro-2-methylimidazo[1,2-a]pyridin-3-yl)methyl]piperidin-4-yl}-6-(3-fluorophenyl)nicotinamide], the pIC50 was 8.37.

In the case of `CC(C)(C)OC(=O)N1CC(NC(=O)c2ccc(-c3cccc(F)c3)nc2)C1` [Example 599], the pIC50 is 8.53.

Regarding `Cc1nccc(CN2CCC(NC(=O)c3ccc(-c4cccc(F)c4)nc3)CC2)n1` [Example 389, 6-(3-Fluorophenyl)-N-{1-[(2-methylpyrmidin-4-yl)methyl]piperidin-4-yl}nicotinamide], the negative-log IC50 (pIC50) is 8.65.

In the case of `O=C(NC1CCN(Cc2ccccc2Cn2cccn2)CC1)c1ccc(-c2cccc(F)c2)nc1` [Example 436, 6-(3-Fluorophenyl)-N-{1-[2-(1H-pyrazol-1-ylmethyl)benzyl]piperidin-4-yl}nicotinamide], the negative-log IC50 (pIC50) was 9.05.

In the case of `O=C(NC1CCN(Cc2ccc3cccc(F)c3n2)CC1)c1ccc(-c2cccc(F)c2)nc1` [Example 430, 6-(3-Fluorophenyl)-N-{1-[(8-fluoroquinolin-2-yl)methyl]piperidin-4-yl}nicotinamide], the pIC50 was 8.92.

Consider `CC(C)NC(=O)c1ccc(N2CCC(NC(=O)c3ccc(-c4cccc(F)c4)nc3)CC2)nn1` [Example 157, 6-[4-({[6-(3-Fluorophenyl)pyridin-3-yl]carbonyl}amino)piperidin-1-yl]-N-isopropylpyridazine-3-carboxamide], for which the pIC50 was 9.17.

As to `O=C(NC1CCN(Cc2n[nH]c3ccccc23)CC1)c1ccc(-c2cccc(F)c2)nc1` [Example 513, 6-(3-Fluorophenyl)-N-[1-(1H-indazol-3-ylmethyl)piperidin-4-yl]nicotinamide], the pIC50 is 9.44.

Consider `Cc1ccc(C#N)c(N2CCC(NC(=O)c3ccc(-c4cccc(F)c4)nc3)CC2)n1` [Example 41, N-[1-(3-Cyano-6-methylpyridin-2-yl)piperidin-4-yl]-6-(3-fluorophenyl)nicotinamide], for which the negative-log IC50 (pIC50) is 9.05.

Take `O=C(NC1CCN(Cc2cccn3c(Br)cnc23)CC1)c1ccc(-c2cccc(F)c2)nc1` [Example 377, N-{1-[(3-Bromoimidazo[1,2-a]pyridin-8-yl)methyl]piperidin-4-yl}-6-(3-fluorophenyl)nicotinamide]: the pIC50 is 9.31.

For “N-{1-[1-(2-Ethoxyphenyl)-1H-tetrazol-5- yl]piperidin-4-yl}-6-(3-fluorophenyl)nicotinamide [Example 105]”, the negative logarithm of the IC50 (pIC50) was 9.18.

Turning to `O=C(NC1CCN(Cc2ccccn2)CC1)c1ccc(-c2ccccc2)nc1` [Example 5, 6-Phenyl-N-[1-(pyridin-2-ylmethyl)piperidin-4-yl]nicotinamide], the negative-log IC50 (pIC50) is 9.18.

With `O=C(NC1CCN(c2ncccc2C(=O)c2nccs2)CC1)c1ccc(-c2cccc(F)c2)nc1` [Example 75, 6-(3-Fluorophenyl)-N-{1-[3-(1,3-thiazol-2-ylcarbonyl)pyridin-2-yl]piperidin-4-yl}nicotinamide], the pIC50 is 9.50.

In the case of `COc1ccc(OC)c(CN2CCC(NC(=O)c3ccc(-c4cccc(F)c4)nc3)CC2)c1` [Example 205, N-[1-(2,5-Dimethoxybenzyl)piperidin-4-yl]-6-(3-fluorophenyl)nicotinamide], the negative logarithm of the IC50 (pIC50) is 9.62.

The values above are taken from patent US7902373B2 (Pfizer Inc, priority 2006, dated 2011).
